Assay results from the NIST ThermoML archive (doi:10.1021/je700621d).
Numbers after ± are expanded uncertainties.

Experiments:
[1] = for mass density: 101.33 kPa, Liquid, Vibrating tube method; for surface tension liquid-gas: Pendant drop shape
[2] = xn = mol fraction of the nth substance listed; details: 298 K; for surface tension liquid-gas: Pendant drop shape; for mass density: 101 kPa, Liquid, Vibrating tube method

CCCCCCCC[N+](C)(CCCCCCCC)CCCCCCCC.O=S(=O)([N-]S(=O)(=O)C(F)(F)F)C(F)(F)F
[1]
Details	mass density [kg/m3]	surface tension liquid-gas [mN/m]
278.15 K	1119.8 ± 8.8	–
278.75 K	–	29.65 ± 0.82
288.15 K	1112.2 ± 8.7	28.92 ± 0.8
298.15 K	1104.6 ± 8.5	27.93 ± 0.77
308.15 K	1097.2 ± 8.4	27.02 ± 0.75
318.15 K	1089.6 ± 8.3	26.56 ± 0.74
328.15 K	1082.1 ± 8.2	26.03 ± 0.73

CCCC[n+]1ccn(C)c1.O=S(=O)([N-]S(=O)(=O)C(F)(F)F)C(F)(F)F
[1]
Details	mass density [kg/m3]	surface tension liquid-gas [mN/m]
278.15 K	1456.1 ± 15	–
278.75 K	–	33.8 ± 0.92
288.15 K	1446.2 ± 15	33.37 ± 0.91
298 K	1436.4 ± 15	32.8 ± 0.88
298.15 K	1436.6 ± 15	32.8 ± 0.9
308.15 K	1427 ± 14	32.32 ± 0.88
318.15 K	1417.4 ± 14	31.89 ± 0.87
328.15 K	1407.9 ± 14	31.28 ± 0.86

CCn1cc[n+](C)c1.O=S(=O)([N-]S(=O)(=O)C(F)(F)F)C(F)(F)F
[1]
Details	mass density [kg/m3]	surface tension liquid-gas [mN/m]
278.15 K	1539.1 ± 17	–
278.75 K	–	37.31 ± 1
288.15 K	1528.9 ± 16	36.58 ± 0.99
298.15 K	1518.7 ± 16	35.71 ± 0.97
308.15 K	1508.7 ± 16	35.17 ± 0.96
318.15 K	1498.6 ± 16	34.68 ± 0.94
328.15 K	1488.7 ± 16	34.25 ± 0.93

CCCC[n+]1ccn(C)c1.O=S(=O)([N-]S(=O)(=O)C(F)(F)F)C(F)(F)F + CCCCO
[2]
Details	mass density [kg/m3]	surface tension liquid-gas [mN/m]
x1 = 0.0941	962.2 ± 0.2	23.98 ± 0.27
x1 = 0.2025	1087.1 ± 0.5	23.88 ± 0.29
x1 = 0.2045	1089 ± 0.5	23.8 ± 0.29
x1 = 0.306	1172.6 ± 1.1	24.16 ± 0.33
x1 = 0.3064	1172.5 ± 1.1	24.25 ± 0.33
x1 = 0.3964	1230.5 ± 1.8	25.17 ± 0.37
x1 = 0.5002	1283.6 ± 3	26.79 ± 0.45
x1 = 0.5977	1323.5 ± 4.5	28.32 ± 0.52
x1 = 0.6848	1354.8 ± 6.1	29.56 ± 0.6
x1 = 0.8016	1388.6 ± 8.7	30.96 ± 0.7
x1 = 0.8986	1413.4 ± 11	31.94 ± 0.79
x1 = 1	1436.4 ± 14	32.8 ± 0.88
